{"source": "patent US8426364B2", "about": "“Method of preventing progression of hypertension-induced heart failure with PKC peptides” (The Board of Trustees of the Leland Stanford Junior …, priority 0011, dated 2013)", "key": {"Dahl salt-sensitive rats [1]": {"tested_on": "Dahl salt-sensitive rats", "experiment": "Hypertension-induced heart failure rat model (survival, echocardiography, blood pressure, body weight)", "assay_type": "in vivo", "settings": "for Systolic Wall Stress: calculated (SBP × ESD)/[4 × PWT × (1 + PWT/ESD)]; for Systolic Wall Stress / EDD (LV end-diastolic diameter) / ESD (LV end-systolic diameter) / FS (LV fractional shortening) / PWT (LV posterior wall thickness): mean ± SEM; for survival: treated for six weeks, compared to TAT control peptide", "experimental": "To determine whether εPKC plays any role in the transition to heart failure and death, HS rats were treated with the selective εPKC inhibiting peptide, TAT47-57-εV1-2 (εV1-2; 2.8 μg/kg/day using a subcutaneous Alzet pump (26)) or with saline as a control (HS-control) from the age of 11 weeks (when compensatory hypertrophy is seen) to 17 weeks (when heart failure is apparent; FIG. 1A)). Another group of hypertensive rats was treated for the same period with a common clinical treatment, the angiotensin II receptor type 1 blocker (ARB, olmesartan, Olm; 3 mg/kg/day).\nAnimal protocols were approved by the Stanford University Institutional Animal Care and Use Committee. Dahl salt-sensitive rats provide a reliable animal model of hypertension-induced heart failure. When placed on 8% NaCl-containing diet from the age of 6 weeks (HS rats), the rats develop compensative left ventricular hypertrophy by the age of 11 weeks, and die from heart failure when they reach 16 to 21 weeks (21, 25). Male Dahl salt-sensitive rats were fed with an 8% NaCl-containing diet (Dahl-high-salt) or with a 0.3% NaCl low salt diet (LS-control; n=25) from the age of 6 weeks onward as previously reported (3, 21). Dahl-high-salt rats were treated between the ages of 11 and 17 weeks with the selective εPKC inhibiting peptide, TAT47-57-εV1-2 (εV1-2; n=10, 2.8 μg/kg/day), with TAT47-57-εV1-1 (εV1-1; n=14, 2.8 μg/kg/day), or with saline as a control (HS-Control; n=12), using osmotic pumps implanted subcutaneously. A fourth group was treated with angiotensin II receptor type 1 blocker, olmesartan (ARB; n=12, 3 mg/kg/day in 0.5% carboxymethylcellulose) delivered by daily gavage for the same period. A fifth group was treated from 15 to 17 weeks of age with the selective εPKC activating peptide, TAT47-57-ΨεRACK (ΨεRACK; n=17, 2.8 μg/kg/day) using an osmotic pump implanted subcutaneously (FIG. 1).\nThe osmotic pumps were replaced every two weeks, but were discontinued after the age of 17 weeks because half of the HS-control rats died by that age. Additional groups were treated with εV1-2 (using the Alzet pump) together with ARB (n=12) or with ARB alone (n=13) from 11 to 19 weeks of age (FIG. 6). Survival rate, fractional shortening and blood pressure were evaluated in these groups. Systolic blood pressure was measured by the tail-cuff method (BP-2000 Blood Pressure Analysis System, Visitech Systems, Inc), and fractional shortening was measured by transthoracic echocardiography (Vivid 7, GE). Additional control Dahl-high-salt rats were treated with TAT47-57 carrier peptide between 11 to 17 weeks or between 15 to 17 weeks, with vehicle for ARB (0.5% carboxymethylcellulose) or were left untreated and evaluated for survival rate, cardiac function and blood pressure."}, "Dahl salt-sensitive rats [2]": {"tested_on": "Dahl salt-sensitive rats", "experiment": "Histological analysis of left ventricle (Masson's trichrome, H&E)", "assay_type": "in vivo, rat", "experimental": "For morphometric analysis, left ventricle (LV) specimens from 17-week-old rats (n=4 for each group) were fixed with 10% buffered formalin and embedded in paraffin. Several sections were prepared from each specimen and stained with either hematoxylin and eosin (H&E) for assessment of inflammation and proliferation of vascular cells, or with Masson's trichrome stain to assess the area of cardiac fibrosis using a point-counting method (22, 23)."}, "92 genes": {"tested_on": "92 genes", "experiment": "Real-time PCR gene expression in LV tissue", "assay_type": "in vivo, rat", "settings": "LV from 17-week-old rats; 92 genes examined", "experimental": "In another study, the effects of pharmacological inhibition or activation of εPKC and olmesartan on gene expression profile was analyzed. To address the molecular differences in the protective effects induced by εPKC inhibition and olmesartan, real-time PCR was used to monitor changes in gene expression resulting from each treatment. The effects of chronic treatment (as above) with the εPKC inhibitor (TAT47-57-εV1-2), the εPKC activator (TAT47-57-ΨεRACK) or olmesartan (ARB) in LV from 17-week-old rats on the expression of 92 genes was examined. […]\nTwo μg of total RNA extracted from the LV tissues of each […] rat (n=6 for each group) were converted to first-strand cDNA by reverse transcription using High Capacity cDNA Archive kit (Applied Biosystems). […] The fluorescence signals were normalized to the ubiquitously expressed housekeeping gene, β-actin. Fold-changes of mRNA expression of each group compared to the LS-control were determined by comparing cycle threshold values (24). Statistical analysis was assessed by 1-way factorial ANOVA with Fisher's test. […]"}, "Dahl salt-sensitive rats [3]": {"tested_on": "Dahl salt-sensitive rats", "experiment": "Hypertension-induced heart failure rat model (survival, echocardiography, blood pressure, body weight)", "assay_type": "in vivo", "settings": "age of 11, 13, 15 and 17 weeks; β peptide study"}, "[4]": {"settings": "17 weeks of age, high-salt rats, εV1-2 and Olm treated 11 to 17 weeks, ΨεR 15 to 17 weeks"}, "[5]": {"settings": "24 weeks of age, treated 11 to 19 weeks of age"}}, "data": [{"compound": "CCCc1nc(C(C)(C)O)c(C(=O)O)n1Cc1ccc(-c2ccccc2-c2nnn[nH]2)cc1", "note": "[Olm, olmesartan]", "values": [{"measurement": "Systolic Wall Stress", "setting": "Dahl salt-sensitive rats [1]; 17 weeks of age", "result": "50.7 ± 4.4", "unit": "g/cm^2"}, {"measurement": "EDD (LV end-diastolic diameter)", "setting": "Dahl salt-sensitive rats [1]; [4]", "result": "7.3 ± 0.2", "unit": "mm"}, {"measurement": "ESD (LV end-systolic diameter)", "setting": "Dahl salt-sensitive rats [1]; [4]", "result": "3.1 ± 0.2", "unit": "mm"}, {"measurement": "FS (LV fractional shortening)", "setting": "Dahl salt-sensitive rats [1]; [4]", "result": "58.4 ± 1.6", "unit": "%"}, {"measurement": "PWT (LV posterior wall thickness)", "setting": "Dahl salt-sensitive rats [1]; [4]", "result": "1.5 ± 0.04", "unit": "mm"}, {"measurement": "EDD (LV end-diastolic diameter)", "setting": "Dahl salt-sensitive rats [1]; [5]", "result": "7.9 ± 0.2", "unit": "mm"}, {"measurement": "ESD (LV end-systolic diameter)", "setting": "Dahl salt-sensitive rats [1]; [5]", "result": "4.9 ± 0.5", "unit": "mm"}, {"measurement": "FS (LV fractional shortening)", "setting": "Dahl salt-sensitive rats [1]; [5]", "result": "38.3 ± 4.6", "unit": "%"}, {"measurement": "PWT (LV posterior wall thickness)", "setting": "Dahl salt-sensitive rats [1]; [5]", "result": "1.5 ± 0.03", "unit": "mm"}, {"measurement": "Systolic Wall Stress", "setting": "Dahl salt-sensitive rats [1]; 24 weeks of age, treated 11 to 19 weeks", "result": "105.8 ± 13.6", "unit": "g/cm^2"}, {"measurement": "reduction of fibrosis in LV", "setting": "Dahl salt-sensitive rats [2]; as compared with HS-control, 17-week-old rats, Masson's trichrome", "result": "~50", "unit": "%"}, {"measurement": "number of genes with expression modified by this treatment but not the other", "setting": "92 genes", "result": 15, "unit": "genes"}]}, {"compound": "CC[C@H](C)[C@H](NC(=O)[C@@H]1CCCN1C(=O)[C@H](C)NC(=O)[C@H](CC(=O)O)NC(=O)[C@H](Cc1c[nH]cn1)NC(=O)[C@@H](N)CSSC[C@H](N)C(=O)N[C@@H](Cc1ccc(O)cc1)C(=O)NCC(=O)N[C@@H](CCCNC(=N)N)C(=O)N[C@@H](CCCCN)C(=O)N[C@@H](CCCCN)C(=O)N[C@@H](CCCNC(=N)N)C(=O)N[C@@H](CCCNC(=N)N)C(=O)N[C@@H](CCC(N)=O)C(=O)N[C@@H](CCCNC(=N)N)C(=O)N[C@@H](CCCNC(=N)N)C(=O)N[C@@H](CCCNC(=N)N)C(=O)O)C(=O)NCC(=O)N[C@@H](Cc1ccc(O)cc1)C(=O)N[C@@H](CC(=O)O)C(=O)O", "note": "[ΨεR]", "values": [{"measurement": "arterial stenosis", "setting": "Dahl salt-sensitive rats [2]; hypertensive rats, chronic treatment", "result": "induced arterial stenosis"}, {"measurement": "arterial stenosis", "setting": "Dahl salt-sensitive rats [2]; normotensive Dahl salt-sensitive rats on a low-salt diet", "result": "did not cause arterial stenosis"}]}, {"compound": "βIIV5-3: βIIV5-3 peptide inhibitor QEVIRN (SEQ ID NO: 3), from the V5 domain of βIIPKC (Synthetic peptide inhibitor)", "values": [{"measurement": "left ventricular weight to body weight ratio (LVW/BW)", "setting": "Dahl salt-sensitive rats [1]; 17-weeks old rats", "result": "reduced"}, {"measurement": "fractional shortening", "setting": "Dahl salt-sensitive rats [1]; at 17 weeks, vs TAT control, in words", "result": "significantly reduced fractional shortening"}, {"measurement": "wall stress", "setting": "Dahl salt-sensitive rats [1]; hypertensive rats, in words", "result": "reduces wall stress"}, {"measurement": "survival", "setting": "Dahl salt-sensitive rats [1]", "result": "prolonged survival significantly longer than treatment with the βIV5-3 peptide inhibitor"}, {"measurement": "systolic blood pressure", "setting": "Dahl salt-sensitive rats [3]", "result": "less than in the TAT or βIV5-3 peptide-treated animals"}]}, {"compound": "βIV5-3: βIV5-3 PKC peptide inhibitor KLFIMN (SEQ ID NO: 2), from the V5 domain of βIPKC (Synthetic PKC peptide inhibitor)", "values": [{"measurement": "survival", "setting": "Dahl salt-sensitive rats [1]", "result": "prolonged survival"}]}]}
